Consider 4 compounds from ChEMBL document CHEMBL5715260, “Selectivity Literature for EUbOPEN Chemogenomic Library” (2024).

Each structure is given as a SMILES string. pIC50: −log10 of the molar value. Where a SMILES comes first, the peptide text is derived from it. [ ]: non-standard residue; d: D form. The star is where a group is joined. Benzoyl(4-tBu) = CC(C)(C)c1ccc(C(=O)*)cc1; Lys(Et2) = CCN(CC)CCCC[C@H](N)C(=O)O

Broadly, the pIC50 is the negative decadic logarithm of the IC50, by convention in mol/L. A lower pIC50 goes with a large IC50.

What all share (design): recommended concentration 1 uM
Test [1] concerns the target T1, Bromodomain-containing protein 9 (Homo sapiens, UniProt Q9H8M2).
T1 sequence (Q9H8M2 whole entry): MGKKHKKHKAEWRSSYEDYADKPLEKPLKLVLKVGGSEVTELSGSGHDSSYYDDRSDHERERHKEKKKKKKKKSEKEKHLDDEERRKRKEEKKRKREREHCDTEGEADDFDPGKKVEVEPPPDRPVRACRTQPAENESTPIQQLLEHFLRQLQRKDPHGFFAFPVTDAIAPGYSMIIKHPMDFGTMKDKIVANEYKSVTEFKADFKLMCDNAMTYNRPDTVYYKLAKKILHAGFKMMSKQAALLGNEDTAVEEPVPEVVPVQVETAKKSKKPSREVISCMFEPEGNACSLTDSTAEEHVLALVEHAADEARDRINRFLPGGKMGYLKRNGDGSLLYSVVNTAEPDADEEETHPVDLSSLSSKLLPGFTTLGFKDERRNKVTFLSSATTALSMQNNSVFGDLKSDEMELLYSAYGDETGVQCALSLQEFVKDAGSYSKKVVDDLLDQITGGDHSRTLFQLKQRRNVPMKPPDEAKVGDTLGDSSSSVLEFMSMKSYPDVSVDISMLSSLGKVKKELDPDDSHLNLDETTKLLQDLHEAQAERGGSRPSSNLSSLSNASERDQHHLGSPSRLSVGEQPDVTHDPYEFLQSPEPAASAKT
Kind of test: (§1) Selectivity interaction (Bromodomain panel) EUB0000233b BRD9.

Test [2] deals with T1, Bromodomain-containing protein 9. Described as §1. This is another data set of the same source.
Test [3] has the same target. Described as §1. The source holds these as a separate data set.
Test [4] has as its target Vasopressin V1a receptor (Homo sapiens) (UniProt P37288). Kind of test: Selectivity interaction (NIMH PDSP panel) EUB0002346a AVPR1A. The following applies: at 10 µM.
Test [5] deals with Delta-type opioid receptor (Homo sapiens, UniProt P41143). The experiment in a line: Selectivity interaction (NIMH PDSP panel) EUB0002346a OPRD1. The following applies: at 10 µM.
The target of test [6] is Substance-P receptor (Homo sapiens) (UniProt P25103). Kind of test: Selectivity interaction (NIMH PDSP panel) EUB0002346a TACR1. To be noted: at 10 µM.
Test [7] deals with Vasopressin V1a receptor (Homo sapiens) (UniProt P37288). The experiment in a line: Selectivity interaction (CEREP panel) EUB0002346a AVPR1A. The following applies: at 10 µM.
For test [8], the target named is T2, Mu-type opioid receptor (Homo sapiens, UniProt P35372). The experiment in a line: Selectivity interaction (NIMH PDSP panel) EUB0002346a OPRM1. To be noted: at 10 µM.
Test [9] has as its target T3, Kappa-type opioid receptor (Homo sapiens, UniProt P41145). The experiment in a line: Selectivity interaction (NIMH PDSP panel) EUB0002346a OPRK1. The following applies: at 10 µM.
Test [10] concerns the target Substance-K receptor (Homo sapiens) (UniProt P21452). The experiment in a line: Selectivity interaction (NIMH PDSP panel) EUB0002346a TACR2. To be noted: at 10 µM.
Test [11] addresses T2, Mu-type opioid receptor. Kind of test: Selectivity interaction (CEREP panel) EUB0002346a OPRM1. The following applies: at 10 µM.
For test [12], the target named is Vasopressin V2 receptor (Homo sapiens) (UniProt P30518). Kind of test: Selectivity interaction (NIMH PDSP panel) EUB0002346a AVPR2. The following applies: at 10 µM.
Test [13] has as its target T3, Kappa-type opioid receptor. Kind of test: Selectivity interaction (CEREP panel) EUB0002346a OPRK1. The following applies: at 10 µM.
Test [14] deals with Substance-K receptor (Homo sapiens) (UniProt P21452). Kind of test: Selectivity interaction (CEREP panel) EUB0002346a TACR2. The following applies: at 10 µM.
Test [15] deals with Vasopressin V1b receptor (Homo sapiens) (UniProt P47901). Kind of test: Selectivity interaction (NIMH PDSP panel) EUB0002346a AVPR1B. The following applies: at 10 µM.
In test [16] the target is Lysine-specific histone demethylase 2 (Homo sapiens, UniProt Q8NB78). The experiment in a line: Selectivity interaction (Proteomics) EUB0000269cCl KDM1B/LSD2.
The target of test [17] is Bromodomain-containing protein 4 (Homo sapiens, UniProt O60885). The experiment in a line: Selectivity interaction (Proteomics) EUB0000269cCl BRD4.
Test [18] concerns the target Nuclear receptor subfamily 2 group E member 1 (Homo sapiens) (UniProt Q9Y466). The experiment in a line: Selectivity interaction (Reporter gene assay) EUB0002359a NR2E1.
Test [19] deals with Steroidogenic factor 1 (Homo sapiens) (UniProt Q13285). Kind of test: Selectivity interaction (Reporter gene assay) EUB0002359a NR5A1. (In a reporter assay the amount or activity of a reporter protein is the signal.)
For test [20], the target named is Nuclear receptor subfamily 4immunitygroup A member 1 (Homo sapiens) (UniProt P22736). The experiment in a line: Selectivity interaction (Reporter gene assay) EUB0002359a NR4A1.
Test [21] deals with T4, Retinoic acid receptor RXR-alpha (Homo sapiens) (UniProt P19793).
T4 sequence (whole entry): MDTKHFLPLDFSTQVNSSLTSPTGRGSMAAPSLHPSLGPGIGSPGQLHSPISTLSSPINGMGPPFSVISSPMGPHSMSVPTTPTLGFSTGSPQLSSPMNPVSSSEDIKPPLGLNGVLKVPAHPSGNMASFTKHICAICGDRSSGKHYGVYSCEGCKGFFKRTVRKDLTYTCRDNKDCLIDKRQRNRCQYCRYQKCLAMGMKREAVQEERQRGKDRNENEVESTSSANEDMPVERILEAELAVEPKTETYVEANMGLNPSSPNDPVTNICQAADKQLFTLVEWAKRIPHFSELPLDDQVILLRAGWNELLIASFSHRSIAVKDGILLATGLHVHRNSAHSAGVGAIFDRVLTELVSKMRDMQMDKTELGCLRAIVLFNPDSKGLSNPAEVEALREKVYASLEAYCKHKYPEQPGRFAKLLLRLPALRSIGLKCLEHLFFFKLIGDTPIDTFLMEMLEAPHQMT
The experiment in a line: Selectivity interaction (Reporter gene assay) EUB0002359a RXRA. To be noted: reference bexarotene 1 uM, Selectivity number of off-targets 0.0, Selectivity number of targets 1.0, Source Knowledge inhouse.

Test [22] deals with T5, Hepatocyte nuclear factor 4-alpha (Homo sapiens) (UniProt P41235).
T5 sequence (whole entry): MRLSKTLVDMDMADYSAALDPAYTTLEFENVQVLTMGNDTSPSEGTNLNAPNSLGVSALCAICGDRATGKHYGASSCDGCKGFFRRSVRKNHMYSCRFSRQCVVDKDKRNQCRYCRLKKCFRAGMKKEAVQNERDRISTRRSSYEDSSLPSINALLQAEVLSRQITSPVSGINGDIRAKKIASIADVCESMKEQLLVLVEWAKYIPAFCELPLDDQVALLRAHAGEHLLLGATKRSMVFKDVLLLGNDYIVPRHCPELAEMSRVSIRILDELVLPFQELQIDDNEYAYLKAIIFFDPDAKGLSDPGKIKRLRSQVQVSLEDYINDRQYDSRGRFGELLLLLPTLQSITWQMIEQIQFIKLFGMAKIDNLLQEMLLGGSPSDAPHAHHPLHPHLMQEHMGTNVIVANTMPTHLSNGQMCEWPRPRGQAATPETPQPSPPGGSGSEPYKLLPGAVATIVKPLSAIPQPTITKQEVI
The experiment in a line: Selectivity interaction (Reporter gene assay) EUB0002359a HNF4A.

Test [23] has as its target T6, Nuclear receptor subfamily 2 group C member 1 (Homo sapiens) (UniProt P13056).
T6 sequence (whole entry): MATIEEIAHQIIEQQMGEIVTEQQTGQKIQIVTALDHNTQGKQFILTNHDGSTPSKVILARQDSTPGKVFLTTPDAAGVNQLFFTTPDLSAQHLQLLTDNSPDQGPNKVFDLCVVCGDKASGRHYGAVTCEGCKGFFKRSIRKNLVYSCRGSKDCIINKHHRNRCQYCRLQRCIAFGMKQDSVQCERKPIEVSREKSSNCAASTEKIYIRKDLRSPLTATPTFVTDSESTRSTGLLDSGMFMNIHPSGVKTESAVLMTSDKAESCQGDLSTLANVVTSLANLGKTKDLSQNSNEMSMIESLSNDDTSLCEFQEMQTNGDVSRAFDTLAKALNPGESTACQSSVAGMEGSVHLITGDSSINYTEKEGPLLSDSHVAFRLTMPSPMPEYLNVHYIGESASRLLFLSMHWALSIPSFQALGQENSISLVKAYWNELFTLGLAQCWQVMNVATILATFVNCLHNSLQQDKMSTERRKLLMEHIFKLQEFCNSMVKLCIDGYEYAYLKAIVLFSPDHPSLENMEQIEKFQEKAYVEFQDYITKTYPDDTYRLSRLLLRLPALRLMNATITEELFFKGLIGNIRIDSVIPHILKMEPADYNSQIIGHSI
The experiment in a line: Selectivity interaction (Reporter gene assay) EUB0002359a NR2C1.

Test [24] has as its target Alpha trans-inducing protein (Human alphaherpesvirus 1) (UniProt A0A5J6DW59). Kind of test: Selectivity interaction (Reporter gene assay) EUB0002359a UL48.

T2 sequence (P35372 whole entry): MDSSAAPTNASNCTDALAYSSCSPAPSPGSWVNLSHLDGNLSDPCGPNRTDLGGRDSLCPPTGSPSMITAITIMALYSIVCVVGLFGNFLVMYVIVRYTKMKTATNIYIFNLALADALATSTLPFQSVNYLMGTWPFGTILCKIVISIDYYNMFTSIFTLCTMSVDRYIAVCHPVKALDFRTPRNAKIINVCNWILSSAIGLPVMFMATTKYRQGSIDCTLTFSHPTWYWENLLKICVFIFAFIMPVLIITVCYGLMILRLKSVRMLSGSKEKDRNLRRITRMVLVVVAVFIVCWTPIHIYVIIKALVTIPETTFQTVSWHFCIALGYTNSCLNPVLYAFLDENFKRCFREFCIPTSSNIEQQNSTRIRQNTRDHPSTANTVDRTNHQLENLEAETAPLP
Substance-K receptor (Homo sapiens), sequence (P21452 whole entry): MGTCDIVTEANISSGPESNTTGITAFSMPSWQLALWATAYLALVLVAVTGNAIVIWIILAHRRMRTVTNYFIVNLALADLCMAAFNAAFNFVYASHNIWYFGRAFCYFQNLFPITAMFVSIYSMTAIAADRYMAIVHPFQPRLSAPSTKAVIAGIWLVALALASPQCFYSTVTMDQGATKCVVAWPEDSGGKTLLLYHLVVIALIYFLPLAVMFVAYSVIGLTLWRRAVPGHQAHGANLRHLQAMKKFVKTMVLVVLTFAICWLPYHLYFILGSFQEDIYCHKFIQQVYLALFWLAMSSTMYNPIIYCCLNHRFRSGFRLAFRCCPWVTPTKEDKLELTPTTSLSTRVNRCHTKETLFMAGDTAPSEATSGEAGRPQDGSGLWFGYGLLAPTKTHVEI
Vasopressin V1a receptor (Homo sapiens), sequence (P37288 whole entry, looked up): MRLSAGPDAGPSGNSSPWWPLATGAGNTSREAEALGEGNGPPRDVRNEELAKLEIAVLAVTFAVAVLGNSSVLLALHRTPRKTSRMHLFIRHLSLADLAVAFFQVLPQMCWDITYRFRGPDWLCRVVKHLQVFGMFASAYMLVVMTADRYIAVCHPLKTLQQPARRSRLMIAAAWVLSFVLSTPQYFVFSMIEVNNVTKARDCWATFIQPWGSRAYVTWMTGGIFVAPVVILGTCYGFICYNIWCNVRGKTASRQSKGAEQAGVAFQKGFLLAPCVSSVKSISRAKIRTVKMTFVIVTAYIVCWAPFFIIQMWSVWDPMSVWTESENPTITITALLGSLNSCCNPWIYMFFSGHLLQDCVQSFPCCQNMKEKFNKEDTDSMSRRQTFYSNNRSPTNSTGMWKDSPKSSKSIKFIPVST
T3 sequence (P41145 whole entry): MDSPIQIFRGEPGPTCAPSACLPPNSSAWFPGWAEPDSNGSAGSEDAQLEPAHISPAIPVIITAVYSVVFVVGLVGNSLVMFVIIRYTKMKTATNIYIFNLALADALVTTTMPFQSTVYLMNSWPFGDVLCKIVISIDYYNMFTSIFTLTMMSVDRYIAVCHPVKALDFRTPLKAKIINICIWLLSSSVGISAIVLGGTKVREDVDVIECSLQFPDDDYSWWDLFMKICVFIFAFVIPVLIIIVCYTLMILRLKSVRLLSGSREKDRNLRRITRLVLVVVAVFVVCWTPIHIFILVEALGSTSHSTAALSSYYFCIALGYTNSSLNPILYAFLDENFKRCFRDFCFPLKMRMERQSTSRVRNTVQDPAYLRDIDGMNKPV
Nuclear receptor subfamily 4immunitygroup A member 1 (Homo sapiens), sequence (P22736 whole entry): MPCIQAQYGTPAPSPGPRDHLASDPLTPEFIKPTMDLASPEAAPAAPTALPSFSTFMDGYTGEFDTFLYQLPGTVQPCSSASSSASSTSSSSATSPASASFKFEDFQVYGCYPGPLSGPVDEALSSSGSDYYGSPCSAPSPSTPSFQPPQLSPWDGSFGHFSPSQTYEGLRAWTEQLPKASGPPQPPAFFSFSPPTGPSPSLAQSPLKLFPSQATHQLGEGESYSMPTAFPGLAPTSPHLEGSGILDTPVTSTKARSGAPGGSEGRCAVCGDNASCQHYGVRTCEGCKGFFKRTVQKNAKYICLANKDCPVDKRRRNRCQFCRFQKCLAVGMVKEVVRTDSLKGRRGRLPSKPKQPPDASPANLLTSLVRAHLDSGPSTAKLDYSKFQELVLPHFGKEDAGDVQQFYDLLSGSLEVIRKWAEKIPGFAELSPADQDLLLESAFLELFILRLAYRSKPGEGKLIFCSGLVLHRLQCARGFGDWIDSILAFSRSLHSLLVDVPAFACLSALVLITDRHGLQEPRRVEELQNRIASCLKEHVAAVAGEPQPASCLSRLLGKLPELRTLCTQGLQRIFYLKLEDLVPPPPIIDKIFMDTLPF
Substance-P receptor (Homo sapiens), sequence (P25103 whole entry): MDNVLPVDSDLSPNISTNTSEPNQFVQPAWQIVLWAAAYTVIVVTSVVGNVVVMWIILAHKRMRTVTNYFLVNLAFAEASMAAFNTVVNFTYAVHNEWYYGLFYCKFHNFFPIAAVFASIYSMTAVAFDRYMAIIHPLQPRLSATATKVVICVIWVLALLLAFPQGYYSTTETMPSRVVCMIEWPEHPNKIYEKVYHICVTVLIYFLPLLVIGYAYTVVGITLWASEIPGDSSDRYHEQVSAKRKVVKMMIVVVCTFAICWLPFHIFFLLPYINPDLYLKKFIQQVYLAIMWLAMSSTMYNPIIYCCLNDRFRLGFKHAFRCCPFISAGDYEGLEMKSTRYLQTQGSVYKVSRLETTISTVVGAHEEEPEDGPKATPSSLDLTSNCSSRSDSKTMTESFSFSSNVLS
Steroidogenic factor 1 (Homo sapiens), sequence (Q13285 whole entry): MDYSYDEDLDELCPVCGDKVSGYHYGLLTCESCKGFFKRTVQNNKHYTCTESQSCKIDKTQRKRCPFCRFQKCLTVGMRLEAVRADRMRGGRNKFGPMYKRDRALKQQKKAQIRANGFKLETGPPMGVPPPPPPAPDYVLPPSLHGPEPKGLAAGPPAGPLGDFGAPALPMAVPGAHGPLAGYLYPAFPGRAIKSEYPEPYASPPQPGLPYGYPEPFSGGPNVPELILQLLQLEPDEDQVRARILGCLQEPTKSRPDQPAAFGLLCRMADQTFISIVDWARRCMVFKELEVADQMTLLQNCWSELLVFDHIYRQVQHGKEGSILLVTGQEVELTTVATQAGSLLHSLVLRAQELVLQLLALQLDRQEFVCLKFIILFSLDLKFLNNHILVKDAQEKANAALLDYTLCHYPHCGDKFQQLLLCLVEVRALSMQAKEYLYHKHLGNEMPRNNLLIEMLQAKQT
Lysine-specific histone demethylase 2, sequence (Q8NB78 whole entry): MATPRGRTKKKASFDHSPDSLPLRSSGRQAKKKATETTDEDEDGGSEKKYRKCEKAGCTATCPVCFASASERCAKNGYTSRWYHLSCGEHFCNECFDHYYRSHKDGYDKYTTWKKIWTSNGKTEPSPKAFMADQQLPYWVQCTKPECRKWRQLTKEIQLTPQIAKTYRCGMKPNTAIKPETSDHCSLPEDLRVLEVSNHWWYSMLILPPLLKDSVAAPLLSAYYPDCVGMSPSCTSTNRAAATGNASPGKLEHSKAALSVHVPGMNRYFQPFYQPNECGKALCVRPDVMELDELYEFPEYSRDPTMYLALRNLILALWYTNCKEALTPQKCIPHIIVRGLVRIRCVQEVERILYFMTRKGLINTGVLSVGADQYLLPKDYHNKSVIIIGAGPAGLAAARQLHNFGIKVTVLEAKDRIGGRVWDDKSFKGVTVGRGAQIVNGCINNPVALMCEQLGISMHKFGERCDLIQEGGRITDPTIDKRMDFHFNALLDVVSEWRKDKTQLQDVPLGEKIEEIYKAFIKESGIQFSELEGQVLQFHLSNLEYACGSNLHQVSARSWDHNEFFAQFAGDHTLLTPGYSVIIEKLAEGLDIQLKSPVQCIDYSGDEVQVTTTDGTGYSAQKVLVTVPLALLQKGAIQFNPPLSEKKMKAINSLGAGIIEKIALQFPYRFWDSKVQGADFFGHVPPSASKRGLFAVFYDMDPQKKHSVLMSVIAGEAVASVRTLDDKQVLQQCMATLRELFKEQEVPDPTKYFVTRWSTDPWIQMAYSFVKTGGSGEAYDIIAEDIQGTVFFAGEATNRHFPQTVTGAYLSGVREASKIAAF
Vasopressin V1b receptor (Homo sapiens), sequence (P47901 whole entry): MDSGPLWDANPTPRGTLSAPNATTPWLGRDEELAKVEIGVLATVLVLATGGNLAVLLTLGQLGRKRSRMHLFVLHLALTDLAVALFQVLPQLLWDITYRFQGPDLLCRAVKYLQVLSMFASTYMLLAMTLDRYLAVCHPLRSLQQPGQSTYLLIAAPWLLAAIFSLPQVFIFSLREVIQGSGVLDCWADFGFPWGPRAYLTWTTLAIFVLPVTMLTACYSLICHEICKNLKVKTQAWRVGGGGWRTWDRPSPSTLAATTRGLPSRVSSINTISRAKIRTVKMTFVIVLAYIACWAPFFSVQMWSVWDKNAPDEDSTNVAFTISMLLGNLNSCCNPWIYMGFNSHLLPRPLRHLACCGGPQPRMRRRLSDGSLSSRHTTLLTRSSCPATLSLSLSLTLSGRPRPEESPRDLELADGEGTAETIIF
Vasopressin V2 receptor (Homo sapiens), sequence (P30518 whole entry): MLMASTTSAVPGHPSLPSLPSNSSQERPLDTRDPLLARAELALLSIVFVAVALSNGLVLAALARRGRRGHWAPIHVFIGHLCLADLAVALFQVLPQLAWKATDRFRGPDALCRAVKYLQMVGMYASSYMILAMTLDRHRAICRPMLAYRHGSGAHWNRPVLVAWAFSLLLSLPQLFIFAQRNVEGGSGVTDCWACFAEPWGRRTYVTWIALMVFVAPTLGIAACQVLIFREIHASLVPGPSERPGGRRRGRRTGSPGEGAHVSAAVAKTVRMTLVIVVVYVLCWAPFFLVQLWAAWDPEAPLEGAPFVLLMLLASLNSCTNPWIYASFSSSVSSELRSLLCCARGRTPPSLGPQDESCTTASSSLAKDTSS

`CN(C)CCCOc1ccc(-c2cc(NCCCn3cccn3)nc(S(C)(=O)=O)n2)cc1`: the pIC50 in [1], in test [2] and in test [3] was 5.85 throughout.

In the case of `CCN(CC)CCCC[C@H](NC(=O)[C@H](CC(C)C)NC(=O)[C@H](C)NC(=O)[C@H](Cc1ccccc1)NC(=O)c1ccc(C(C)(C)C)cc1)C(=O)N[C@@H](CO)C(=O)OC` ({Benzoyl(4-tBu)}-FAL[Lys(Et2)]S-OMe), the Inhibition of control in test [4] was greater than 50%; in test [5] it was greater than 50%; in [6], greater than 50%; in [7], 85%; in test [8], greater than 50%; in test [9] it was greater than 50%. For the same compound, the Inhibition of control was greater than 50% in [10]; 51% in [11]; greater than 50% in [12]; 91% in [13]; 75% in test [14]; greater than 50% in test [15].

Regarding `Cc1cc(CN)cc(C)c1-c1ncn(C)c1-c1ccnc2cc(F)ccc12`, the negative-log IC50 (pIC50) in [16] is less than 4.00; in [17], less than 3.00.

`CC(C)c1c(CN(C)C(C)Cc2ccccc2)n(C)n(-c2ccccc2)c1=O` (centres undefined): the Remaining activity in test [18] turned out to be 0.769; in test [20], 0.96. For the same compound, the Fold activation in test [19] is 1.12; in test [22] it was 1.15; in [23], 1.13. This compound came in with a Relative activation in test [21] of 0.69%. The compound further registered a P-value in test [24] of 0.00161.
